Measurements published in the supplement of paper PMC11061612.

Columns and labels:
Assay in all cases: Bliss excess, mean over the matrix (fraction); higher = more synergy
[1] = system: RL95-2 (Endometrial Carcinoma)
Outline: (§1)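 Cell lines in DMEM/F12 or RPMI with 10% FBS were plated in 1536-well plates, held 24 hours at 37°C, 5% CO2, then given two-drug dose matrices for 72 hours (DMSO typically 0.2%). Viability was read by CellTiter-Glo 2.0 luminescence and scaled as inhibition from 0 (vehicle wells) to 1 (blank wells). Combination Emax is the second-highest inhibition in the matrix; Bliss excess is observed combination effect minus expected EA + EB − EA·EB, EA and EB being single-agent effects.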

[2] = system: LOUCY (T-Lymphoblastic Leukemia)
Outline: as §1

[3] = system: RERF-LC-KJ (Lung Adenocarcinoma)
Outline: as §1

[4] = system: LAMA-84 (Chronic Myelogenous Leukemia)
Outline: as §1

[5] = system: RMG-I (Ovarian Carcinoma)
Outline: as §1

[6] = system: CML-T1 (Chronic Myelogenous Leukemia)
Outline: as §1

[7] = system: Calu-6 (Non-Small Cell Lung Carcinoma)
Outline: as §1

[8] = system: KYSE-70 (Esophageal Squamous Cell Carcinoma)
Outline: as §1

[9] = system: Becker (Low Grade Glioma)
Outline: as §1

[10] = system: SJRH30 (Rhabdomyosarcoma)
Outline: as §1

[11] = system: NKM-1 (Acute Myeloid Leukemia)
Outline: as §1

[12] = system: OVTOKO (Ovarian Carcinoma)
Outline: as §1

[13] = system: SW684 (Other Solid Carcinomas)
Outline: as §1

[14] = system: NCI-H1563 (Lung Adenocarcinoma)
Outline: as §1

[15] = system: JHH-1 (Hepatocellular Carcinoma)
Outline: as §1

[16] = system: SK-MM-2 (Plasma Cell Myeloma)
Outline: as §1

[17] = system: BALL-1 (B-Lymphoblastic Leukemia)
Outline: as §1

[18] = system: NCI-H810 (Non-Small Cell Lung Carcinoma)
Outline: as §1

ES-2 (Ovarian Carcinoma) = system: ES-2 (Ovarian Carcinoma)
Outline: as §1

[19] = system: RPMI-8866 (Chronic Myelogenous Leukemia)
Outline: as §1

SMILES | Bliss excess [1] | Bliss excess [2] | Bliss excess [3] | Bliss excess [4] | Bliss excess [5] | Bliss excess [6] | Bliss excess [7] | Bliss excess [8] | Bliss excess [9] | Bliss excess [10] | Bliss excess [11] | Bliss excess [12] | Bliss excess [13] | Bliss excess [14] | Bliss excess [15] | Bliss excess [16] | Bliss excess [17] | Bliss excess [18] | Bliss excess (ES-2 (Ovarian Carcinoma)) | Bliss excess [19]
CC(=O)c1c(C)c2cnc(Nc3ccc(N4CCNCC4)cn3)nc2n(C2CCCC2)c1=O [Palbociclib] + Cn1cnc2c(F)c(Nc3ccc(Br)cc3Cl)c(C(=O)NOCCO)cc21 [Selumetinib] (first compound max 10 µM, 7x7, partner max 10 µM) | -0.0144 | -0.0138 | -0.0208 | -0.0263 | -0.0165 | -0.013 | -0.102 | -0.0096 | 0.0393 | -0.0131 | -0.0194 | -0.0503 | -0.018 | 0.0092 | -0.0693 | -0.021 | -0.12 | -0.0697 | -0.0041 | 0.0259
COc1cccc(OCCCN)c1-c1cc(Nc2cnc(C#N)cn2)n[nH]1 [Prexasertib] + C=CCn1c(=O)c2cnc(Nc3ccc(N4CCN(C)CC4)cc3)nc2n1-c1cccc(C(C)(C)O)n1 [AZD1775] (first compound max 1 µM, partner max 1 µM) | 0.108 | 0.0578 | 0.0487 | 0.0731 | 0.0265 | 0.189 | -0.0201 | 0.0874 | 0.0374 | 0.108 | 0.056 | -0.0519 | 0.0798 | -0.0101 | 0.0105 | 0.0085 | 0.0618 | 0.0869 | 0.0006 | 0.0591
COc1cccc(OCCCN)c1-c1cc(Nc2cnc(C#N)cn2)n[nH]1 [Prexasertib] + CCc1c2c(nc3ccc(O)cc13)-c1cc3c(c(=O)n1C2)COC(=O)[C@]3(O)CC [SN-38] (first compound max 1 µM, 7x7, partner max 0.3 µM) | 0.153 | 0.0103 | 0.0513 | -0.0066 | -0.102 | 0.0077 | -0.0116 | 0.0907 | -0.0716 | 0.012 | -0.0554 | -0.0192 | 0.0036 | -0.0111 | -0.11 | -0.0714 | -0.016 | 0.0967 | -0.0222 | 0.0104
COc1cccc(OCCCN)c1-c1cc(Nc2cnc(C#N)cn2)n[nH]1 [Prexasertib] + CN(C)CCCOc1ccc(-c2ccc3ncc4c(c3c2)n(C2CCOCC2)c(=O)n4C)cn1 [AZD0156] (first compound max 1 µM, 7x7, partner max 1 µM) | -0.0364 | 0.0036 | -0.0159 | -0.0219 | -0.04 | -0.0328 | -0.0507 | -0.0233 | -0.0203 | -0.0242 | -0.0165 | 0.0594 | -0.0432 | -0.0416 | 0.0785 | -0.0392 | 0.0043 | -0.0327 | 0.0072 | -0.009
COc1cccc(OCCCN)c1-c1cc(Nc2cnc(C#N)cn2)n[nH]1 [Prexasertib] + C[C@@H]1COCCN1C2=NC(=NC(=C2)C3(CC3)[S@](=N)(=O)C)C4=C5C=CNC5=NC=C4 [AZD6738] (first compound max 1 µM, 7x7, partner max 10 µM) | -0.0487 | -0.0009 | -0.0002 | -0.0052 | 0.0108 | -0.0309 | -0.0852 | 0.0378 | -0.0317 | -0.0192 | -0.0583 | 0.0006 | -0.018 | -0.0878 | 0.0009 | -0.0348 | -0.001 | -0.0519 | -0.0375 | 0.0633
COc1cccc(OCCCN)c1-c1cc(Nc2cnc(C#N)cn2)n[nH]1 [Prexasertib] + Cc1cc2ncnn2cc1Nc1ncc2c(n1)n(C1CCOCC1)c(=O)n2C [AZD7648] (first compound max 1 µM, 7x7, partner max 10 µM) | -0.0263 | -0.0021 | 0.0558 | -0.0208 | -0.0235 | -0.0175 | -0.0354 | -0.0383 | -0.0081 | -0.0311 | -0.0271 | -0.0079 | -0.0408 | -0.0146 | 0.0093 | -0.0512 | 0.0202 | 0.0108 | -0.0357 | 0.0455
COc1cccc(OCCCN)c1-c1cc(Nc2cnc(C#N)cn2)n[nH]1 [Prexasertib] + O=C(c1cc(Cc2n[nH]c(=O)c3ccccc23)ccc1F)N1CCN(C(=O)C2CC2)CC1 [Olaparib] (first compound max 1 µM, 7x7, partner max 10 µM) | -0.0343 | -0.0422 | -0.0597 | -0.0307 | -0.124 | -0.03 | -0.0701 | -0.0248 | -0.0257 | -0.104 | -0.0706 | -0.035 | -0.0742 | -0.037 | -0.0416 | -0.011 | -0.0145 | -0.0082 | -0.102 | 0.0028
COc1cc2c(cc1OCCCCCOc1cc3c(cc1OC)C(=O)N1C=C(C)C[C@H]1C=N3)N=C[C@@H]1CC(C)=CN1C2=O [SG3199] + O=C(c1cc(Cc2n[nH]c(=O)c3ccccc23)ccc1F)N1CCN(C(=O)C2CC2)CC1 [Olaparib] (first compound max 0.001 µM, 7x7, partner max 10 µM) | -0.0383 | -0.039 | -0.0235 | -0.0015 | -0.0599 | -0.006 | -0.013 | -0.0227 | -0.0361 | 0.0009 | -0.0362 | -0.0476 | -0.056 | -0.0428 | -0.0059 | -0.0179 | 0.0476 | -0.0368 | -0.045 | -0.0032
CCc1c2c(nc3ccc(O)cc13)-c1cc3c(c(=O)n1C2)COC(=O)[C@]3(O)CC [SN-38] + CN(C)CCCOc1ccc(-c2ccc3ncc4c(c3c2)n(C2CCOCC2)c(=O)n4C)cn1 [AZD0156] (first compound max 0.3 µM, 7x7, partner max 1 µM) | 0.0502 | 0.0406 | -0.083 | 0.08 | 0.018 | 0.0241 | 0.0491 | 0.0487 | 0.0387 | 0.0722 | 0.033 | -0.0523 | -0.0457 | -0.0605 | -0.018 | 0.0076 | 0.0492 | -0.0022 | 0.0144 | 0.0969
C[C@@H](c1ccc2nccn2c1)n1nnc2ncc(-c3cnn(C)c3)nc21 [Savolitinib] + CC1(C)CCC(CN2CCN(c3ccc(C(=O)NS(=O)(=O)c4ccc(NCC5CCOCC5)c([N+](=O)[O-])c4)c(Oc4cnc5[nH]ccc5c4)c3)CC2)=C(c2ccc(Cl)cc2)C1 [Venetoclax] (first compound max 1 µM, 7x7, partner max 1 µM) | -0.0481 | -0.0803 | -0.077 | -0.0111 | -0.0756 | -0.0156 | -0.0539 | -0.0504 | -0.0182 | -0.0577 | 0.0653 | -0.0675 | -0.0461 | -0.0691 | -0.0529 | -0.019 | -0.0306 | -0.0517 | -0.0324 | -0.0452
C[C@@H](c1ccc2nccn2c1)n1nnc2ncc(-c3cnn(C)c3)nc21 [Savolitinib] + Cc1c2c(nn1C)CSCc1cc(n(C)n1)CSc1cc(c3ccccc3c1)OCCCc1c(C(=O)O)n(C)c3c-2c(Cl)ccc13 [AZD5991] (first compound max 1 µM, 7x7, partner max 1 µM) | -0.0676 | 0.0369 | 0.012 | 0.0136 | -0.0327 | 0.0118 | -0.0124 | -0.0339 | 0.0103 | -0.0432 | -0.0069 | -0.0743 | -0.0608 | -0.0271 | -0.0462 | -0.0395 | -0.052 | -0.0517 | -0.0299 | -0.0285
Cn1cnc2c(F)c(Nc3ccc(Br)cc3Cl)c(C(=O)NOCCO)cc21 [Selumetinib] + C=CCn1c(=O)c2cnc(Nc3ccc(N4CCN(C)CC4)cc3)nc2n1-c1cccc(C(C)(C)O)n1 [AZD1775] (first compound max 10 µM, partner max 1 µM) | 0.0148 | -0.196 | -0.0044 | -0.0385 | -0.0005 | -0.0607 | -0.0133 | -0.0339 | 0.0145 | -0.0372 | -0.0478 | -0.114 | -0.106 | -0.0393 | 0.0171 | -0.0198 | 0.0018 | -0.0632 | 0.0334 | -0.0049
Cn1cnc2c(F)c(Nc3ccc(Br)cc3Cl)c(C(=O)NOCCO)cc21 [Selumetinib] + CC(C)n1c(=O)n(C)c2cnc3cc(F)c(-c4ccc(OCCCN5CCCCC5)nc4)cc3c21 [AZD1390] (first compound max 10 µM, 7x7, partner max 0.3 µM) | -0.0663 | -0.0166 | -0.0073 | -0.0309 | -0.0268 | -0.0441 | -0.0588 | -0.0481 | -0.007 | -0.031 | -0.107 | -0.0509 | -0.0616 | -0.0229 | -0.0268 | -0.0084 | -0.0156 | -0.0525 | -0.0215 | -0.0193
Cn1cnc2c(F)c(Nc3ccc(Br)cc3Cl)c(C(=O)NOCCO)cc21 [Selumetinib] + CCN(CCO)CCCOc1ccc2c(Nc3cc(CC(=O)Nc4cccc(F)c4)[nH]n3)ncnc2c1 [AZD2811] (first compound max 10 µM, 7x7, partner max 1 µM) | 0.045 | -0.0979 | -0.003 | 0.0237 | -0.0385 | 0.0685 | -0.0026 | 0.0047 | -0.0119 | -0.0008 | -0.0376 | -0.0303 | -0.036 | 0.0102 | -0.0327 | -0.0037 | 0.0638 | -0.037 | -0.0322 | 0.0543
Cn1cnc2c(F)c(Nc3ccc(Br)cc3Cl)c(C(=O)NOCCO)cc21 [Selumetinib] + C[C@@H]1COCCN1C2=NC(=NC(=C2)C3(CC3)[S@](=N)(=O)C)C4=C5C=CNC5=NC=C4 [AZD6738] (first compound max 10 µM, 7x7, partner max 10 µM) | 0.0152 | -0.0446 | 0.0075 | 0.0012 | 0.0106 | -0.0631 | -0.032 | -0.0408 | 0.0016 | -0.0293 | -0.0748 | -0.0278 | -0.071 | -0.0297 | 0.0427 | -0.0604 | -0.0066 | -0.0707 | 0.0006 | -0.0129
